“Also recorded” adds a separate entry of the source. Where two headings read alike, the source gives them in different places.
What was measured:
[1] = system: primary neurons; test: Death induced by forced ATF4 expression in primary neurons (MTT, LIVE/DEAD); assay type: cell-based; details: concentrations protective in the oxidative stress model
Description: (§1) FIGS. 6A-6I. […] Expression of ATF4 was forced into primary neurons, which induces death of these neurons by MTT assay (FIG. 6D) or LIVE/DEAD staining, Green is live, Red is dead (FIG. 6E).

[2] = system: HIF-1 protein; test: HIF-1 protein stabilisation in primary neurons (Western blot); assay type: cell-based; details: FIG. 6H, 6I
Description: FIGS. 1A-1L: Structurally diverse HIF PHD inhibitors stabilize HIF-1 and abrogate toxicity induced by hemin, a byproduct of blood breakdown, in cortical neurons hippocampal neuroblasts and striatal neuroblasts (not shown). […] FIGS. 6A-6I. […] Expression of ATF4 was forced into primary neurons, which induces death of these neurons by MTT assay (FIG. 6D) or LIVE/DEAD staining, Green is live, Red is dead (FIG. 6E).

[3] = biological target: recombinant HIF PHD2 (Homo sapiens, UniProt Q9GZT9); test: Recombinant HIF PHD2 hydroxylation of HIF peptide, non-denaturing mass spectrometry; assay type: biochemical
Description: FIGS. 3A-3G. Validation of adaptoquin as a novel HIF PHD inhibitor. […] Under steady state conditions, activity of HIF PHD2 with its co-substrate 2-oxoglutarate involves two peaks that represent non-hydroxylated and hydroxylated peptide. The hydroxylated peptide disappears in the presence of HIF PHD2 inhibition by adaptoquin. […] The reporter contains the ODD domain of HIF-1 which confers HIF PHD regulated stability on it. It is expressed in all cells of the body, but is destabilized in the absence of HIF PHD inhibition and stabilized in its presence. Quantitative measurements confirm stability of the ODD-luc in brain, kidney and liver (FIGS. 3D and 3E.).
To verify that the changes in light in the brain reflect parenchymal changes in ODD-luciferase levels rather than increases in changes in skin or dural ODD-luciferase, ODD-luciferase activity was measured normalized to total protein in lysates from distinct brain regions using a luminometer.

[4] = system: intracerebral hemorrhage (collagenase into the striatum); test: Collagenase-induced ICH in mice; assay type: in vivo; details: for Corner task (spatial neglect): 30 mg/kg i.p. 2 h post collagenase then daily for seven days; for Tape removal task (sensory neglect): 1 and 3 days post ICH; for Neuronal degeneration (Fluoro-jade staining), striatum hematoma and perihematomal area: day 7
Method: FIGS. 4A-4N. Adaptoquin delivered post-injury reduces cell death and enhances functional recovery post injury in mice and rats. Adaptoquin's effects in mice are not associated with global shifts of iron out of the brain. FIG. 4A: Experimental design for schedule of delivery of adaptaquin post-ICH. 30 mg/kg was delivered post-injury and then daily for seven days during which behavioral analysis was done. Mice were sacrificed at day 7 for qPCR and Fluoro-jade staining. […] FIG. 4J: Protocol for adaptoquin treatment of rats with ICH. ICH is modeled by autologous blood infusion and not collagenase in these studies. Behavior is tracked by a single pellet reaching task out to 28 days, but the schedule of infusion is similar to what is used in mice-2 hrs post blood infusion and then daily out to seven days. Behavior is monitored before, from 9-11 days and from 25-28 days. […] FIG. 4L: Protocol for evaluating the total concentrations of iron and zinc in brain following ICH in vehicle and adaptoquin treated mice. FIGS. 4M, 4N: Pseudocolored sections of collagenase induced ICH in mice after 7 days. […] These studies are consistent with the notion that adaptoquin works by inhibiting a specific metalloenzyme rather than global movement of metal ions. To determine whether HIF PHD inhibition after ICH can improve behavioral outcomes, 30 mg/kg of adaptoquin was delivered to the peritoneum of mice two hours following the injection of collagenase into the striatum. An identical dose of adaptoquin (30 mg/kg) was given daily for seven days. […] These molecular deletion and pharmacological inhibition studies supported HIF PHDs as targets for therapy post ICH, but left unanswered the mechanism by which adaptoquin could abrogate neuronal death. A first prediction of the model was that adaptoquin enhances functional recovery without affecting total brain iron levels. Total iron levels were monitored in brain sections from vehicle- and adaptoquin-treated (30 mg/kg) mice seven days following ICH.

[5] = system: ATF4; test: ATF4 dependent gene expression under oxidative stress in neurons (microarray, qPCR, promoter occupancy); assay type: cell-based
Description: FIGS. 5A-5G. […] Because adaptoquin is a HIF PHD inhibitor that appears to work independent of HIF transcription factors, and because hemin induced death involves oxidative stress, the effect of adaptoquin on oxidative glutamate toxicity was examined. This form of toxicity is observed in primary cortical neurons from E17 rat embryos (2 DIV) and involves glutamate mediated inhibition of the amino acid cystine via its plasma membrane transporter. […] Accordingly, the optimal concentration of adaptoquin in protecting neurons was first determined and found to be about 1 micromolar. […] To determine the mechanism of adaptoquin, transcriptomic experiments were performed using non-protective and protective concentrations of drug harvesting RNA just prior to the time the cell's becoming insensitive to adaptoquin (16 hrs), as provided in FIG. 5C.
as §1
To probe the mechanism of adaptoquin-induced neuroprotection, the study moved its attention to a well established model of oxidative stress in neurons induced by glutamate. Like hemin induced toxicity, oxidative glutamate toxicity is abrogated by forced expression of GPX4 (Alim et al., unpublished observations). However, oxidative glutamate toxicity has a much longer window before cells are committed to die (eighteen hours), facilitating analysis of primary events involved in cell death and protection. A detailed dose response and therapeutic window study was performed with adaptoquin in mouse cortical neurons exposed to glutamate or the glutamate analog, homocysteate. […] To probe the mechanism of this potent, delayed protection, a microarray transcriptomics study was performed using RNA from neuronal cultures that had been exposed to glutamate (or HCA) for 16 hours with vehicle, as well as non-protective (100 nM) and protective doses of adaptoquin (1 μM). […]

Sequence of recombinant HIF PHD2 (Q9GZT9 whole entry, the tested form may be a part): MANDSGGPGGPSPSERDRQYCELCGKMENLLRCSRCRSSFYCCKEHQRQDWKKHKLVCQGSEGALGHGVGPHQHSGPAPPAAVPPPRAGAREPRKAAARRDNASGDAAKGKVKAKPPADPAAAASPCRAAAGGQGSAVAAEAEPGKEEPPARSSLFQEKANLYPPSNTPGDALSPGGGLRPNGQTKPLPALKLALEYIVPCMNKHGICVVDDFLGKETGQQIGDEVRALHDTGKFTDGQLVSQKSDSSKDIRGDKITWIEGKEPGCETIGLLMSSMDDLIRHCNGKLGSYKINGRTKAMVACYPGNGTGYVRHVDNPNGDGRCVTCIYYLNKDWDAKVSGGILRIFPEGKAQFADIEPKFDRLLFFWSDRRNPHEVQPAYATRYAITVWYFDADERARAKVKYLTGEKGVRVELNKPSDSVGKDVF

Oc1cccnc1NC(c1ccc(Cl)cc1)c1ccc2cccnc2c1O (stereo not shown) [adaptoquin]
Death induced by oxidative stress and ATF4 forced expression [1]: mitigates death induced by oxidative stress and ATF4 forced expression | HIF-1 stabilisation relative to protective concentration [2]: stabilizes HIF-1 at concentrations higher than that required for full protection | Inhibition of recombinant HIF PHD2 activity (hydroxylation of HIF peptide) [3]: inhibit the ability of recombinant HIF prolyl hydroxylase 2 to hydroxylate an HIF peptide | Inhibition of recombinant HIF PHD2 activity (hydroxylation of HIF peptide) ([3]; listed as Adpatoquin): inhibits activity of recombinant HIF PHD2 | Corner task (spatial neglect) [4]: significantly normalized | Corner task (spatial neglect) ([4]; listed as Adaptoquin): corrects behavioral deficits | Tape removal task (sensory neglect) ([4]; 30 mg/kg i.p.): significant improvement | Tape removal task (sensory neglect) ([4]; 30 mg/kg i.p., listed as Adaptoquin): corrects behavioral deficits | Hematoma size ([4]; 30 mg/kg i.p., at 24 hours): no difference | Edema ([4]; 30 mg/kg i.p., at three days): did decrease edema | Neuronal degeneration (Fluoro-jade staining), striatum hematoma and perihematomal area ([4]; 30 mg/kg i.p.): reduction in the number of degenerating neurons | Neuronal degeneration (Fluoro-jade staining), striatum hematoma and perihematomal area ([4]; 30 mg/kg i.p., listed as Apatoquin): significantly reduces neuronal degeneration | p21 expression ([4]; 30 mg/kg post-ICH then daily for seven days, qPCR day 7): induced p21 expression | Oxidative stress and ATF4 dependent induction of Trb3 ([5]; 1 micromolar): abrogates oxidative stress and ATF4 dependent induction of Trb3 | ATF4 occupancy at the promoter of Trib3 ([5]; oxidative stress): abrogates oxidative stress induced ATF4 occupancy | Expression of ATF4 dependent genes (Trib3, MTHFR2, SCL7A11, STC2) ([5]; protective doses (1 μM), quantitative PCR / microarray): significantly reduces expression of ATF4 dependent genes; also recorded: downregulation of ATF4 dependent genes

— patent US10716783B2, “Prolylhydroxylase/ATF4 inhibitors and methods of use for treating neural cell injury or death and conditions resulting therefrom” (CORNELL UNIVERSITY, priority 2013, dated 2020)
